Source: US9447136B2, “Semisynthetic derivatives of Nystatin A1” (BLIRT S.A., priority 2012, dated 2016)
Like-named read-outs stand apart in the source and are kept apart here.

What was measured:
[1] = system: Saccharomyces cerevisiae ATCC 9763; assay: Antifungal activity in vitro, serial dilution in RPMI 1640; assay type: cell-based; settings: Table 2A; RPMI 1640, pH 7.0; A531 at most 20% of control
Procedure: (§1) For the determination of antifungal activity in vitro we used method of serial dilution in buffered medium RPMI 1640, pH 7.0, in a 96-wells microplates, according to the standard procedure (National Committee for Clinical Laboratory Standards. Reference method for broth dilution antifungal susceptibility testing of yeast, approved standard, 2nd ed. M27-A2 vol. 22 Wayne, Pa., 2002). The optical density of cells suspension was measured using a microplates reader (Victor^3, Perkin-Elmer) at the wavelength λ=531 nm (A531). On the basis of obtained results the diagrams of relation between A531 values and concentration of examined compound were made. From these graphs, the IC50 values were read, which were the interpolated concentrations of a tested compound, at which the A531 value was exactly 50% of the A531 value for the control sample. Moreover, MIC values, that are the lowest concentration of tested compound at which the A531 value were at most 20% of the A531 value measured for the control sample.

[2] = system: Candida glabrata DSM 11226; assay: as above; assay type: cell-based; settings: Table 2A; RPMI 1640, pH 7.0
Procedure: as §1

[3] = system: Candida albicans ATCC 10231; assay: as above; assay type: cell-based; settings: Table 2A, RPMI 1640, pH 7.0; for Antifungal activity Candida albicans ATCC 10231 IC50: A531 50% of control; for Antifungal activity Candida albicans ATCC 10231 MIC: A531 at most 20% of control
Procedure: as §1

Candida krusei DSM 6128 = assay: as above; assay type: cell-based; settings: Table 2A; RPMI 1640, pH 7.0
Procedure: as §1

[4] = system: Candida tropicalis KKP 334; assay: as above; assay type: cell-based; settings: Table 2A; RPMI 1640, pH 7.0
Procedure: as §1

[5] = system: Candida lusitaniae DSM 70102; assay: as above; assay type: cell-based; settings: Table 2A; RPMI 1640, pH 7.0
Procedure: as §1

Human erythrocytes = assay: Hemotoxicity (hemolytic activity)
Procedure: The hemotoxicity determination were carried out by the serial dilutions method, according to the procedure described earlier (Ślisz, M., et al., E., J Antibiot 57: 669-678 (2004)). Human erythrocytes were suspensed in the solution of saline to obtain a cell density of suspension 2×10^7/ml. Suitable amounts of diluted solutions of compounds were added to the cell suspension in tubes and were incubated at 37° C. for 30 minutes and then centrifuged (1700×g, 10 min, 4° C.). The concentration of hemoglobin in supernatant after centrifugation of erythrocytes suspension were determined by measuring the absorbance at wavelength λ=540 nm (A540). The maximum level of hemolysis was obtained after incubation of cells suspension in the presence of 0.1% Tritone X-100 (control sample). […] From these graphs, the EH50 values were read which are the interpolated concentrations of compound, for which the A540 value is exactly 50% of the A540 value measured for the control sample.

[6] = human erythrocytes, concentration causing 10% of hemolysis

Molecule	Antifungal activity Saccharomyces cerevisiae ATCC 9763 MIC [1]	Antifungal activity Candida glabrata DSM 11226 MIC [2]	Antifungal activity Candida albicans ATCC 10231 IC50 [3]	Antifungal activity Candida albicans ATCC 10231 MIC [3]	Antifungal activity Candida krusei DSM 6128 MIC (Candida krusei DSM 6128)	Antifungal activity Candida tropicalis KKP 334 MIC [4]	Antifungal activity Candida lusitaniae DSM 70102 MIC [5]	EH10 (Human erythrocytes; [6])	% of hemolysis at the concentration 300 μg ml^−1 (Human erythrocytes)	EH10 (Human erythrocytes)	Hemotoxicity BEH50 (Human erythrocytes; human erythrocytes, 37° C., 30 minutes, concentration causing 50% hemolysis, maximum concentration 300 μg/ml)	% of hemolysis at the concentration 300 μg ml^−1 (Human erythrocytes; human erythrocytes, 300 μg ml^−1)
N-{3-[2-(morpholin-1-yl)ethyl]thioureidyl}nystatin A1 [Compound N13]	8 µg/mL	16 µg/mL	3.88 µg/mL	8 µg/mL	16 µg/mL	8 µg/mL	8 µg/mL					
CC1OC(O[C@H]2/C=C/C=C/C=C/C=C/CC/C=C/C=C/[C@H](C)[C@@H](O)[C@@H](C)[C@H](C)OC(=O)C[C@H](O)C[C@H](O)C[C@H](O)CC[C@@H](O)[C@H](O)CC3(O)C[C@H](O)[C@@H](C(=O)O)[C@H](C2)O3)C(O)C(NC2CC(=O)N(c3ccc(Br)cc3)C2=O)C1O (some centres unmarked) [Compound N2, N—(N′-4-bromophenylsuccinimidyl)nystatin A1]	8 µg/mL	16 µg/mL	4.99 µg/mL	8 µg/mL	16 µg/mL	8 µg/mL						
CNC(C)(C)C(=O)NC1C(O)C(C)OC(O[C@H]2/C=C/C=C/C=C/C=C/CC/C=C/C=C/[C@H](C)[C@@H](O)[C@@H](C)[C@H](C)OC(=O)C[C@H](O)C[C@H](O)C[C@H](O)CC[C@@H](O)[C@H](O)CC3(O)C[C@H](O)[C@@H](C(=O)O)[C@H](C2)O3)C1O (some centres unmarked) [Compound N43, N-[2-(N-methylamino)-2-methylpropan]nystatin A1]	8 µg/mL	8 µg/mL	5.46 µg/mL	8 µg/mL	16 µg/mL	8 µg/mL		283.84 µg/mL				
C[C@@H]1[C@H](O)[C@@H](C)/C=C/C=C/CC/C=C/C=C/C=C/C=C/[C@H](O[C@@H]2O[C@H](C)[C@@H](O)[C@H](NC(=O)[C@H](N)COC(C)(C)C)[C@@H]2O)C[C@@H]2O[C@](O)(C[C@@H](O)C[C@@H](O)[C@H](O)CC[C@@H](O)C[C@@H](O)CC(=O)O[C@H]1C)C[C@H](O)[C@H]2C(=O)O [Compound N38, N-D-(O-tert-butyl)serylnystatin A1]	8 µg/mL	16 µg/mL	5.95 µg/mL	8 µg/mL	16 µg/mL	8 µg/mL						
CC1OC(O[C@H]2/C=C/C=C/C=C/C=C/CC/C=C/C=C/[C@H](C)[C@@H](O)[C@@H](C)[C@H](C)OC(=O)C[C@H](O)C[C@H](O)C[C@H](O)CC[C@@H](O)[C@H](O)CC3(O)C[C@H](O)[C@@H](C(=O)O)[C@H](C2)O3)C(O)C(NC(=O)[C@@H](N)CCC(=O)OC(C)(C)C)C1O (stereo partly drawn) [Compound N35, N-L-(O-tert-butyl)glutamylnystatin A1]	8 µg/mL	16 µg/mL	6.36 µg/mL	8 µg/mL	16 µg/mL	16 µg/mL						
CC1OC(O[C@H]2/C=C/C=C/C=C/C=C/CC/C=C/C=C/[C@H](C)[C@@H](O)[C@@H](C)[C@H](C)OC(=O)C[C@H](O)C[C@H](O)C[C@H](O)CC[C@@H](O)[C@H](O)CC3(O)C[C@H](O)[C@@H](C(=O)O)[C@H](C2)O3)C(O)C(NC(=O)[C@H](N)Cc2cccnc2)C1O (stereo partly drawn) [Compound N42, N-D-β-(pyridin-3-yl)alanylnystatin A1]	8 µg/mL	32 µg/mL	10.54 µg/mL	16 µg/mL	32 µg/mL	16 µg/mL						
Cc1cc(C)c(N2C(=O)CC(N[C@@H]3[C@H](O)[C@H](O[C@H]4/C=C/C=C/C=C/C=C/CC/C=C/C=C/[C@H](C)[C@@H](O)[C@@H](C)[C@H](C)OC(=O)C[C@H](O)C[C@H](O)CC[C@@H](O)[C@H](O)C[C@H](O)C[C@]5(O)C[C@H](O)[C@@H](C(=O)O)[C@H](C4)O5)O[C@H](C)[C@H]3O)C2=O)c(C)c1 (some centres unmarked) [Compound N3, N—(N′-2,4,6-trimethylphenylsuccinimidyl)nystatin A1]	8 µg/mL	32 µg/mL	11.76 µg/mL	16 µg/mL		16 µg/mL						
N—(N′-cyclohexylsuccinimidyl)nystatin A1 [Compound N5]	8 µg/mL	16 µg/mL	5.77 µg/mL	8 µg/mL	16 µg/mL	8 µg/mL						
CC1C=CC=CCCC=CC=CC=CC=CC(OC2OC(C)C(O)C(NC(=O)C(N)COC(C)(C)C)C2O)CC2OC(O)(CC(O)CC(O)C(O)CCC(O)CC(O)CC(=O)OC(C)C(C)C1O)CC(O)C2C(=O)O [Compound N36, N-L-(O-tert-butyl)serylnystatin A1]									8.24%	>300 µg/mL		
CCCN(CC1(O)OCC(O)C(O)C1O)C1C(O)C(C)OC(OC2C=CC=CC=CC=CCCC=CC=CC(C)C(O)C(C)C(C)OC(=O)CC(O)CC(O)CC(O)CCC(O)C(O)CC3(O)CC(O)C(C(=O)O)C(C2)O3)C1O (centres unmarked) [Compound N27, N-fructosyl-N-n-propylnystatin A1]									7.34%	>300 µg/mL		
C[C@@H]1[C@H](O)[C@@H](C)/C=C/C=C/CC/C=C/C=C/C=C/C=C/[C@H](O[C@@H]2O[C@H](C)[C@@H](O)[C@H](NC(=O)[C@@H](N)Cc3ccc([N+](=O)[O-])cc3)[C@@H]2O)C[C@@H]2O[C@](O)(C[C@@H](O)C[C@@H](O)[C@H](O)CC[C@@H](O)C[C@@H](O)CC(=O)O[C@H]1C)C[C@H](O)[C@H]2C(=O)O [Compound N40, N-L-(4-nitrophenyl)alanylnystatin A1]	8 µg/mL	16 µg/mL	5.56 µg/mL	8 µg/mL	16 µg/mL	8 µg/mL		>300 µg/mL			>300 µg/mL	7.45%
CC1OC(O[C@H]2/C=C/C=C/C=C/C=C/CC/C=C/C=C/[C@H](C)[C@@H](O)[C@@H](C)[C@H](C)OC(=O)C[C@H](O)C[C@H](O)C[C@H](O)CC[C@@H](O)[C@H](O)CC3(O)C[C@H](O)[C@@H](C(=O)O)[C@H](C2)O3)C(O)C(NC2CC(=O)N(Cc3ccccc3)C2=O)C1O (some centres unmarked) [Compound N1, N—(N′-benzylsuccinimidyl)nystatin A1]	8 µg/mL	16 µg/mL	5.36 µg/mL	8 µg/mL	32 µg/mL	8 µg/mL						
Cc1cccc(C)c1N1C(=O)CC(NC2C(O)C(C)OC(O[C@H]3/C=C/C=C/C=C/C=C/CC/C=C/C=C/[C@H](C)[C@@H](O)[C@@H](C)[C@H](C)OC(=O)C[C@H](O)C[C@H](O)C[C@H](O)CC[C@@H](O)[C@H](O)CC4(O)C[C@H](O)[C@@H](C(=O)O)[C@H](C3)O4)C2O)C1=O (some centres unmarked) [Compound N4, N—(N′-2,6-dimethyl-phenylsuccinimidyl)nystatin A1]	8 µg/mL	16 µg/mL	6.32 µg/mL	8 µg/mL	16 µg/mL	8 µg/mL						
